Assay results from patent US7396837B2, “Antitumoral analogs of lamellarins” (Pharma Mar, S.A.U., priority 2002, dated 2008).

How the values were obtained:
[1] = system: lung cancer cell lines; settings: acting as a Type IV microtubule poison; cited from earlier work
[2] = system: A549; settings: A549 cell line in culture; cited from earlier work
[3] = system: P388; settings: P388 cell line in culture; cited from earlier work
[4] = biological target: T1, human topoisomerase I (Homo sapiens, UniProt P11387); assay: Topoisomerase I DNA relaxation assay (supercoiled plasmid DNA); type: biochemical; settings: for stimulation of DNA cleavage by topoisomerase I / inhibition of topoisomerase I (nicked DNA band) in DNA relaxation assay: supercoiled plasmid DNA, each compound tested at 1 μM, agarose gel with ethidium bromide
T1 sequence (P11387 1-765): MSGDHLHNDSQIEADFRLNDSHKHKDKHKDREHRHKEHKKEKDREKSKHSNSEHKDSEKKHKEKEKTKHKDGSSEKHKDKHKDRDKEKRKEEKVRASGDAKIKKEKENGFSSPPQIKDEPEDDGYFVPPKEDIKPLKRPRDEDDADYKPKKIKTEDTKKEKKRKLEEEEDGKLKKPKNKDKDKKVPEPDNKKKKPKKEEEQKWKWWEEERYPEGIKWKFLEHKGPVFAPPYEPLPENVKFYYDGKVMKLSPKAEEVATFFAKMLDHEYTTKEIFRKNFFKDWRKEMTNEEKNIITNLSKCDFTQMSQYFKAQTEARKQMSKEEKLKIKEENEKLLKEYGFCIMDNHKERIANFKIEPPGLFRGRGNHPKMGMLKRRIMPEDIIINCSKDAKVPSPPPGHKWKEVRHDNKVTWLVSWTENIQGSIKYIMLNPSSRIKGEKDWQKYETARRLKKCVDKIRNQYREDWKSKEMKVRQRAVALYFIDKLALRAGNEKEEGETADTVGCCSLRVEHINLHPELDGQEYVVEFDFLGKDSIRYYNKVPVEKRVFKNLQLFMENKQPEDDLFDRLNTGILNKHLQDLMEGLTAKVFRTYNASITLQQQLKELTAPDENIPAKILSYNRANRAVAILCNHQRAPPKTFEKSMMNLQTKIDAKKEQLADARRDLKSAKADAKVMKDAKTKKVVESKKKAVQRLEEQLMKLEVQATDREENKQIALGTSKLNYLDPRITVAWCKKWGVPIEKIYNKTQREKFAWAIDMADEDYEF
Experimental: (§1) Two assays, based on DNA relaxation and DNA cleavage (Bailly, C. DNA relaxation and cleavage assays to study topoisomerase I inhibitors. Methods Enzymol. 2001, 340, 610-623) were used evaluate the effects of the lamellarin analogs on the catalytic activity of human topoisomerase I.
In the first assay, a supercoiled plasmid DNA was relaxed with topoisomerase I in the absence or presence of the test compounds, each tested at 1 μM. DNA relaxation products were then resolved by gel electrophoresis on agarose gels containing ethidium bromide to stain the DNA.

[5] = biological target: T1, human topoisomerase I; assay: Topoisomerase I cleavage of radiolabeled 117-bp DNA fragment; type: biochemical; settings: 117-bp DNA restriction fragment 3' end-labeled, sequencing-type polyacrylamide gels
From the text: as §1
A second assay, based on the cleavage of a radiolabeled DNA substrate by topoisomerase I, was used to confirm that the cationic lamellarin derivatives do effectively function as topoisomerase I poisons. A 117-bp DNA restriction fragment uniquely end-labeled at the 3′ end was subjected to cleavage by topoisomerase I in the presence of the different compounds and the resulting DNA cleavage products were resolved on sequencing-type polyacrylamide gels. The advantage of this assay is to detect the cleavage sites and to locate their positions with nucleotide resolution, providing thus information on the site selectivity of cleavage.

[6] = system: fertilised sea urchin; settings: fertilised sea urchin assay; cited from earlier work
[7] = system: PANC-1; assay: SRB colorimetric cell growth inhibition assay, PANC-1; type: cell-based
In short: (§2)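 Triplicate-well SRB colorimetry following continuous sample exposure of human tumour cells; reported parameters are GI, TGI for cytostatic effect, and LC for cytotoxic effect.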

[8] = system: A-549; assay: SRB colorimetric cell growth inhibition assay, A-549; type: cell-based
In short: as §2

[9] = system: HT-29; assay: SRB colorimetric cell growth inhibition assay, HT-29; type: cell-based
In short: as §2

[10] = SRB colorimetric cell growth inhibition assay, H-MEC-1; type: cell-based; settings: human, H-MEC-1 cells; H-MEC-1; cell killing (cytotoxic effect); read-out: LC50 H-MEC-1
In short: (§3)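 Growth inhibition (GI), total growth inhibition (TGI, cytostatic) and lethal concentration (LC, cytotoxic) come from an SRB-based colorimetric measure of growth and viability. Data are triplicate-well means ± SD.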

[11] = system: H-MEC-1; assay: as above; type: cell-based; settings: Homo sapiens, HMEC-1, H-MEC-1
In short: as §3

[12] = system: IGROV; assay: SRB colorimetric cell growth inhibition assay, IGROV; type: cell-based; settings: Homo sapiens, IGROV
In short: as §2

[13] = system: SK-MEL-28; assay: SRB colorimetric cell growth inhibition assay, SK-MEL-28; type: cell-based; settings: MEL-28
In short: as §2

[14] = system: DU-145; assay: SRB colorimetric cell growth inhibition assay, DU-145; type: cell-based
In short: as §2

[15] = system: LoVo; assay: SRB colorimetric cell growth inhibition assay, LoVo; type: cell-based
In short: as §2

[16] = system: SKOV-3; assay: SRB colorimetric cell growth inhibition assay, SKOV-3; type: cell-based; settings: Homo sapiens
In short: as §3

[17] = system: LNCaP; assay: SRB colorimetric cell growth inhibition assay, LNCaP; type: cell-based; settings: Homo sapiens, LNCaP, LN-caP
In short: as §2

[18] = system: IGROV-ET; assay: SRB colorimetric cell growth inhibition assay, IGROV-ET (ET-743 resistant); type: cell-based; settings: Homo sapiens, IGROV-ET
In short: as §2

[19] = system: SK-BR-3; assay: SRB colorimetric cell growth inhibition assay, SK-BR-3; type: cell-based
In short: as §2

[20] = system: K-562; assay: SRB colorimetric cell growth inhibition assay, K-562; type: cell-based; settings: Homo sapiens, K562, K-562
In short: as §2

[21] = system: LoVo-Dox; assay: SRB colorimetric cell growth inhibition assay, LoVo-Dox (MDR); type: cell-based; settings: Homo sapiens, LOVO-DOX
In short: as §2

In the case of `COc1ccc(-c2c3c4cc(OC)c(O)cc4oc(=O)c3n3ccc4cc(O)c(OC)cc4c23)cc1O` [Lamellarin N, lamellarin N], the “activity in lung cancer cell lines” value [1] is listed as “exhibit activity in lung cancer cell lines”.
For `COc1cc(-c2c3n(c4c(=O)oc5cc(O)c(OC)cc5c24)CCc2c-3cc(OC)c(OC)c2O)ccc1O` [Lamellarin K, lamellarin K], the cytotoxicity [2] is given as “comparable cytoxicity” and the cytotoxicity [3] is given as “comparable cytoxicity”.
In the case of `COc1cc(-c2c3c4cc(OC)c(OC(=O)[C@@H](N)Cc5ccccc5)cc4oc(=O)c3n3ccc4cc(OC(=O)[C@@H](N)Cc5ccccc5)c(OC)cc4c23)ccc1OC(=O)[C@@H](N)Cc1ccccc1` [Compound 25], the “potency at inhibiting topoisomerase I relative to the other amino acid derivatives” value ([4]; DNA relaxation assay) is reported as “significantly less potent than the other amino acid derivatives”, the “stimulation of DNA cleavage by topoisomerase I / inhibition of topoisomerase I (nicked DNA band) in DNA relaxation assay” value [4] is reported as “marked inhibition of topoisomerase I” and the “topoisomerase I-mediated DNA cleavage sites / cleavage profile” value [5] is reported as “Cleavage profiles identical to that of 3”.
For `COc1ccc(-c2c3n(c4c(=O)oc5cc(O)c(OC)cc5c24)CCc2cc(O)c(OC)cc2-3)cc1O` [Lamellarin L, lamellarin L], the cytotoxicity [2] is listed as “comparable cytoxicity” and the cytotoxicity [3] is listed as “comparable cytoxicity”.
In the case of `CC[C@@]1(O)C(=O)OCc2c1cc1n(c2=O)Cc2cc3ccccc3nc2-1` [camptothecin, reference compound], the “stimulation of DNA cleavage by topoisomerase I / inhibition of topoisomerase I (nicked DNA band) in DNA relaxation assay” value [4] is reported as “strongly promotes DNA cleavage by topoisomerase I”, the “topoisomerase I-mediated DNA cleavage sites / cleavage profile” value [5] is reported as “T^↓G only” and the “topoisomerase I-mediated DNA cleavage sites / cleavage profile” value ([5]; listed as CPT) is reported as “three sites at nucleotide positions 26, 48 and 81”.
In the case of `COc1cc(-c2c3n(c4c(=O)oc5cc(O)c(OC)cc5c24)CCc2c-3cc(OC)c(OC)c2OC)ccc1O` [Lamellarin C, lamellarin C], the “inhibition of cell division” value [6] is listed as “inhibition of cell division”.
In the case of `COc1cc2ccn3c(c(-c4ccc(OC(=O)[C@@H](N)C(C)C)c(OC)c4)c4c5cc(OC)c(OC(=O)[C@@H](N)C(C)C)cc5oc(=O)c43)c2cc1OC` [Compound 19], the CC50 ([7]; Homo sapiens, PANC-1, PANC-1, cell killing (cytotoxic effect), read-out: LC50 PANC-1) is reported as 9500 nM, the GI50 ([7]; PANC-1, GI=growth inhibition, read-out: GI50 PANC-1) is reported as 245 nM and the “TGI PANC-1” value ([7]; PANC-1, total growth inhibition (cytostatic effect)) is reported as 2.42E−06 Molar. For the same compound, the CC50 ([8]; A-549, cell killing (cytotoxic effect), read-out: LC50 A-549) was 6320 nM, the “TGI A-549” value ([8]; A-549, total growth inhibition (cytostatic effect)) was 2.13E−06 Molar and the GI50 ([8]; Homo sapiens, A549, A-549, GI=growth inhibition, read-out: GI50 A-549) was 605 nM. The GI50 ([9]; HT-29, GI=growth inhibition, read-out: GI50 HT-29) was 109 nM, the “TGI HT-29” value ([9]; HT-29, total growth inhibition (cytostatic effect)) was 2.10E−06 Molar and the CC50 ([9]; Homo sapiens, HT-29, HT-29, cell killing (cytotoxic effect), read-out: LC50 HT-29) was 7290 nM. It also gave an LC50 (concentration giving 50% net cell killing) [10] of 7160 nM, a GI50 ([11]; GI=growth inhibition, read-out: GI50 H-MEC-1) of 807 nM and an IC (TGI) ([11]; total growth inhibition (cytostatic effect), read-out: TGI H-MEC-1) of 2420 nM. The GI50 ([12]; GI=growth inhibition, read-out: GI50 IGROV) was 406 nM, the CC50 ([12]; cell killing (cytotoxic effect), read-out: LC50 IGROV) was 9340 nM and the IC (TGI) ([12]; total growth inhibition (cytostatic effect), read-out: TGI IGROV) was 2510 nM. The GI50 ([13]; GI=growth inhibition, read-out: GI50 MEL-28) was 273 nM, the CC50 ([13]; cell killing (cytotoxic effect), read-out: LC50 MEL-28) was 4990 nM and the “TGI MEL-28” value ([13]; total growth inhibition (cytostatic effect)) was 1.53E−06 Molar. For the same compound, the CC50 ([14]; DU-145, cell killing (cytotoxic effect), read-out: LC50 DU-145) was 6850 nM, the GI50 ([14]; Homo sapiens, DU-145, DU-145, GI=growth inhibition, read-out: GI50 DU-145) was 532 nM and the IC (TGI) ([14]; Homo sapiens, DU-145, DU-145, total growth inhibition (cytostatic effect), read-out: TGI DU-145) was 2160 nM. For the same compound, the GI50 ([15]; Homo sapiens, LoVo, GI=growth inhibition, read-out: GI50 LOVO) was 722 nM, the IC (TGI) ([15]; Homo sapiens, LoVo, total growth inhibition (cytostatic effect), read-out: TGI LOVO) was 2330 nM and the CC50 ([15]; LOVO, cell killing (cytotoxic effect), read-out: LC50 LOVO) was 6600 nM. It also gave a GI50 ([16]; SK-OV-3, SKOV-3, GI=growth inhibition, read-out: GI50 SKOV-3) of 758 nM, an LC50 (concentration causing 50% net cell killing) ([16]; SK-OV-3, SKOV-3, cell killing (cytotoxic effect), read-out: LC50 SKOV-3) of 6570 nM and an IC (TGI) ([16]; SK-OV-3, SKOV-3, total growth inhibition (cytostatic effect), read-out: TGI SKOV-3) of 2310 nM. The GI50 ([17]; GI=growth inhibition, read-out: GI50 LN-caP) was 94.1 nM, the CC50 ([17]; cell killing (cytotoxic effect), read-out: LC50 LN-caP) was 5370 nM and the IC (TGI) ([17]; total growth inhibition (cytostatic effect), read-out: TGI LN-caP) was 1410 nM. It also gave a GI50 ([18]; GI=growth inhibition, read-out: GI50 IGROV-ET) of 761 nM, a CC50 ([18]; cell killing (cytotoxic effect), read-out: LC50 IGROV-ET) of 11300 nM and an IC (TGI) ([18]; total growth inhibition (cytostatic effect), read-out: TGI IGROV-ET) of 2540 nM. The CC50 ([19]; Homo sapiens, SK-BR-3, SK-BR-3, cell killing (cytotoxic effect), read-out: LC50 SK-BR-3) was 14000 nM, the GI50 ([19]; SK-BR-3, GI=growth inhibition, read-out: GI50 SK-BR-3) was 165 nM and the “TGI SK-BR-3” value ([19]; SK-BR-3, total growth inhibition (cytostatic effect)) was 2.28E−06 Molar. For the same compound, the GI50 ([20]; GI=growth inhibition, read-out: GI50 K-562) was 1840 nM, the CC50 ([20]; cell killing (cytotoxic effect), read-out: LC50 K-562) was 11600 nM and the IC (TGI) ([20]; total growth inhibition (cytostatic effect), read-out: TGI K-562) was 4620 nM. The GI50 ([21]; GI=growth inhibition, read-out: GI50 LOVO-DOX) was 874 nM, the CC50 ([21]; cell killing (cytotoxic effect), read-out: LC50 LOVO-DOX) was 8030 nM and the IC (TGI) ([21]; total growth inhibition (cytostatic effect), read-out: TGI LOVO-DOX) was 2720 nM.
For `COc1cc2c(cc1O)oc(=O)c1c2c(-c2ccc(OC)c(OC)c2)c2n1CCc1c-2cc(OC)c(OC)c1OC` [Lamellarin I, lamellarin I], the cytotoxicity [2] is listed as “comparable cytoxicity” and the cytotoxicity [3] is listed as “comparable cytoxicity”.
